This note sets out measurements from article PMC9579011, “Coprinopsis cinerea dioxygenase is an oxygenase forming 10(S)-hydroperoxide of linoleic acid, essential for mushroom alcohol, 1-octen-3-ol, synthesis” (The Journal of Biological Chemistry, 2022).

One assay has as its target T1, CcDOX1 (Coprinopsis cinerea, UniProt A8N8W9).
T1 construct: gene CC1G_00844; full length, 1066 aa, C-terminal EGFP fusion, expressed in BmN4 (Bombyx mori) cells, immunopurified on anti-GFP beads
T1 sequence (A8N8W9 1-1066): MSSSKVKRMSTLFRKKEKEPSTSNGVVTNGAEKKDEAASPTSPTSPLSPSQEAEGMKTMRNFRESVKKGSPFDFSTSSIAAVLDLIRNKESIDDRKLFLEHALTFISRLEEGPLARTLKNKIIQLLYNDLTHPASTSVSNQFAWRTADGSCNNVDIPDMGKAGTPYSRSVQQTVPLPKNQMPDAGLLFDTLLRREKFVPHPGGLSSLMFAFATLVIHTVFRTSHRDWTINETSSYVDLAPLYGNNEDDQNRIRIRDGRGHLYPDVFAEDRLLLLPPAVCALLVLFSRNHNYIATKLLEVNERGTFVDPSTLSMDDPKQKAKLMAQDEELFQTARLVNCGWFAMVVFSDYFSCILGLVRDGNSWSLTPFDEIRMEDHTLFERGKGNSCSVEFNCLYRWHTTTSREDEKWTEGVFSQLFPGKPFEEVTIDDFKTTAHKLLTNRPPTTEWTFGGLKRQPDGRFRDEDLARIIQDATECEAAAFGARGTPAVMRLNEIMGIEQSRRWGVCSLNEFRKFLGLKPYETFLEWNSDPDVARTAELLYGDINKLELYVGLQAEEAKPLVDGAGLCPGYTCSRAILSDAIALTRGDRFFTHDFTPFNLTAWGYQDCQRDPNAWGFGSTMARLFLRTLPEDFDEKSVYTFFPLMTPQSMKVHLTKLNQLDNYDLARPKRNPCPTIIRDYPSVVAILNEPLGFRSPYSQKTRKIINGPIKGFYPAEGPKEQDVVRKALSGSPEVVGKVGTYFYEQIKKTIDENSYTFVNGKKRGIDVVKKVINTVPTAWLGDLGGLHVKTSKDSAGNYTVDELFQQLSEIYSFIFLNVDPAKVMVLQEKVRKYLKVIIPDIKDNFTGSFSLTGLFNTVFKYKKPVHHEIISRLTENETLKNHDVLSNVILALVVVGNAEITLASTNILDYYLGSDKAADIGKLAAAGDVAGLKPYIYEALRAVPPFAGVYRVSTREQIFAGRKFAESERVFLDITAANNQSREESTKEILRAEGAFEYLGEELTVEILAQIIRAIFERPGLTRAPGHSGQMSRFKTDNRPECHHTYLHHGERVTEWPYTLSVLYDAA
Briefly: LC-MS/MS product peak area, Hill fit of [S]-v plot. Particulars: Hill coefficient n = 1.9 ± 0.27; 10-500 μM substrate, 30 min on ice; bead-bound immunopurified EGFP fusion; lysis buffer pH 7.4. Format: biochemical.

For another assay, the target named is T2, CcDOX2 (Coprinopsis cinerea, UniProt A8NN01).
T2 construct: gene CC1G_09914; full length, 1118 aa, C-terminal EGFP fusion, expressed in BmN4 (Bombyx mori) cells, immunopurified with anti-GFP antibody
T2 sequence (A8NN01 1-1118): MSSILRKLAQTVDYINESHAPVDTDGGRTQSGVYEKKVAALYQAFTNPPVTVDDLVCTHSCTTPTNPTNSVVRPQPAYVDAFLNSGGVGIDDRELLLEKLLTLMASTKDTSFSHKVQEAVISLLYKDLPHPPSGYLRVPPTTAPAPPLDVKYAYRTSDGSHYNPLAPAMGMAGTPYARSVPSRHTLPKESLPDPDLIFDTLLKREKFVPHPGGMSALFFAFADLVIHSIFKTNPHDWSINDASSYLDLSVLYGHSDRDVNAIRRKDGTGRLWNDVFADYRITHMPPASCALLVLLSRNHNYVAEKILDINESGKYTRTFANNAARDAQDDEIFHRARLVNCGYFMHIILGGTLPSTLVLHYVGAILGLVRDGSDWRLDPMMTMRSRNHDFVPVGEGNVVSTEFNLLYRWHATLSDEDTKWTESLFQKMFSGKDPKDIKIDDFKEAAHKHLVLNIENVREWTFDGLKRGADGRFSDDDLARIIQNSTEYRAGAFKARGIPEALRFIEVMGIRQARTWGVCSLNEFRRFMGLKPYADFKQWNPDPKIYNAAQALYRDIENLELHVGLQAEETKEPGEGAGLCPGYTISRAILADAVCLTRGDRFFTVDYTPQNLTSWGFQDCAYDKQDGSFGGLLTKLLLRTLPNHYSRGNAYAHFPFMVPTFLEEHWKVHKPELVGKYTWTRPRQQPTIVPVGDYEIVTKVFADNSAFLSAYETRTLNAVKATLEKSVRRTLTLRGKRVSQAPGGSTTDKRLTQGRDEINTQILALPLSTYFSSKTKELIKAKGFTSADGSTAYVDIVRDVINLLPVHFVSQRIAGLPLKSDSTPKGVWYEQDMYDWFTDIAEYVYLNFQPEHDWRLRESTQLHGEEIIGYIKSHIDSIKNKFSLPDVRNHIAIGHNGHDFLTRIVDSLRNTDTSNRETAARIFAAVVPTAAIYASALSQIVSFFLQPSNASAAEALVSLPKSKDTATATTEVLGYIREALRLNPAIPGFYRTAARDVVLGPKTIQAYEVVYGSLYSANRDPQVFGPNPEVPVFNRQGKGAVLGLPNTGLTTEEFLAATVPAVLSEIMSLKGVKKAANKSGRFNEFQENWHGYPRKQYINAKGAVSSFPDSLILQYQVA
Briefly: LC-MS/MS of products after triphenylphosphine reduction. The class given is biochemical. The following applies: immunopurified EGFP fusion; 8-hydroperoxide product (tentative).

In turn, `CCCCC/C=C\C/C=C\CCCCCCCC(=O)O` [linoleic acid] gave a KA on CcDOX1 of 78 ± 9.74 µM. For the same molecule, at CcDOX2, the “LC-MS/MS of products after triphenylphosphine reduction” value was “Linoleic acid was added to the purified recombinant CcDOX1 and CcDOX2”.
